The test system of series [1] is L. donovani Ld39 promastigotes. Nature of the series: Anti-promastigote activity (MTS assay), L. donovani Ld39. Format: cell-based. The following applies: 72 hours. An outline of the steps:
(§1)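 Promastigotes (1×10^5 per well) in Schneider's medium pH 6.9 with 10% FBS, exposed to serial compound concentrations for 72 h at 27 °C. Viability by MTS/PMS reduction over 4 h, OD 490 nm; IC50 derived.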

Series [2] in a line: Cytotoxicity, L929 fibroblasts. Format: cell-based, mouse. Conditions: mouse. How it is done:
(§2) IC50 values of known antileishmanials and the amine-containing flavonoid monomers of the present invention to promastigotes (L. amazonensis LV78, L major FV1, L. donovani HU3, L. donovani 39), macrophages (Raw 264.7 and PEM) and mouse fibroblast (L929) were determined. The anti-promastigotes activities and cytotoxicity of the amine-containing flavonoid monomers of the invention are shown in Table 1.

Series [3] has as its system L. amazonensis LV78 promastigotes. Briefly: Anti-promastigote activity (MTS assay), L. amazonensis LV78. Format: cell-based. The following applies: 72 hours. An outline of the steps: as §1
Series [4] has as its system promastigotes (L. amazonensis LV78, L major FV1, L. donovani HU3, L. donovani 39). Nature of the series: Anti-promastigote activity, strain not given. The class given is cell-based. Conditions: Leishmania amazonensis; strain not specified; read-out: IC50 against promastigotes. How it is done: Anti-promastigote activity was determined according to previous procedures (1) by Cell Titer 96® Aqueous Assay (Promega) that employed a tetrazolium compound. Promastigotes were seeded into 96-well flat bottom microtiter plate at 1×10^5 cells per well in a final volume of 100 μL medium and incubated with a series of concentrations of synthetic FM. Parasites were incubated at 27° C. for 72 hours. After 72 hours of incubation, 10 μL of MTS:PMS mixture [MTS:2-(4,5-Dimethylthiazol-2-yl-)-5-[3-(carboxymethoxy)phenyl]-2-(4-sulfophenyl)-2H-tetrazolium); PMS: phenazine methosulfate both purchased from Sigma] was added into each well of microtiter plate. The plate was then incubated at 27° C. for 4 hours for color development. After 4 hours of incubation, the OD values were determined at 490 nm using automatic microtiter plate reader (Bio-Rad).
as §2

The subject of series [5] is L. amazonensis LV78 amastigotes. Briefly: Anti-amastigote activity in infected PEM, L. amazonensis LV78. Format: cell-based. The following applies: for IC50: infected PEM, 3 days, Giemsa. An outline of the steps: (§3)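 Mouse peritoneal elicited macrophages were infected with late-log promastigotes (20:1, overnight or 24 hr, 37° C). Infected cells were then exposed to compound for 72 hours at 37° C. Giemsa-stained amastigotes per 100 macrophages, plus percentage of infected macrophages, were counted, and IC50 values were derived.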

In series [6] the test system is amastigotes (L. amazonensis LV78, L. braziliensis UA847, L. donovani HU3, L. donovani 39). Nature of the series: Anti-amastigote activity, strain not given. The class given is cell-based. The following applies: strain not specified; visceral and cutaneous Leishmania; read-out: IC50 against amastigotes. An outline of the steps: as §3
Series [7] has as its system L. braziliensis UA847 amastigotes. Nature of the series: Anti-amastigote activity in infected PEM, L. braziliensis UA847. The class given is cell-based. The following applies: Leishmania braziliensis, 72 h, 3 days, Giemsa, read-out: Anti-amastigote activity IC50, L. baziliensis UA847. On the procedure: Mouse peritoneal elicited macrophages (PEM) were obtained as previously described (2). A round cover slip (12 mm in diameter) was placed into each well of 24-well culture plate. Mouse PEM were resuspended in supplemented DMEM media containing 10% heat inactivated FBS (v/v), 100 U/mL penicillin and 100 μg/mL streptomycin and seeded into each well at a cell density of 1×10^5 cells per 500 μL. Macrophages were allowed to attach overnight. Non-adherent cells were removed by gentle washing with un-supplemented DMEM media twice. Adherent macrophages were infected with late-log promastigotes at a parasite-to-macrophage ratio of 20:1 overnight at 37° C. with 5% CO2. Non-internalized promastigotes were removed by washing twice with un-supplemented DMEM media. Infected macrophages were further incubated in 500 μL of supplemented DMEM media in the presence or absence of FM for 72 hours at 37° C. After incubation, cover slips were stained with Giemsa and the percentage of macrophages infected and number of amastigotes per 100 macrophages was enumerated.
PEM cells were infected with late-log promastigotes (L. amazonensis LV78, L. braziliensis UA847, L. donovani HU3, L. donovani 39) for 24 hr at 37° C. Infected macrophages were then treated with various antileishmanials and incubated for 3 days at 37° C. After 3 days, the cover slips were stained with Giemsa. The number of amastigotes per 100 macrophages were determined and used to calculate IC50 values.

Series [8] has as its system L. major FV1 promastigotes. Nature of the series: Anti-promastigote activity (MTS assay), L. major FV1. The class given is cell-based. The following applies: 72 hours. An outline of the steps: as §1
A general note: Tetrazolium dyes change colour on reduction, which living cells bring about.

Series [9] in a line: Preliminary oral bioavailability, single time point plasma concentration oral vs i.v. The following applies: hydrochloride salt in saline, 30 minutes, dose-normalized. Format: in vivo, Balb/c mice. On the procedure:
FM01.HCl and FM05.HCl were administered to Balb/c mice via intravenous and passive oral administration. The blood plasma was collected at 30 minutes for LC-MSMS analysis and used for preliminary oral bioavailability screening. The corresponding plasma concentration was normalized by the administered dose for oral bioavailability calculation.
FM01 and FM05 hydrochloride salt was dissolved in saline and administered to Balb/c mice either orally or i.v. Plasma level of FM01 and FM05 was determined 30 minutes later by LC-MS and their identity confirmed by LC-MS/MS. Plasma concentration from oral feeding was divided by that obtained from i.v. administration. […] In these preliminary studies, the ratios were 45% for FM01 and 64% for FM05 (FIG. 3).

Series [10] relates to L. donovani HU3 amastigotes. Nature of the series: Anti-amastigote activity in infected PEM, L. donovani HU3. Conditions: for IC50: Leishmania donovani, 72 h, infected PEM, 3 days, Giemsa, SSG-sensitive. The class given is cell-based. An outline of the steps: as §3
Series [11] concerns L. donovani Ld39 amastigotes (SSG-resistant). Nature of the series: Anti-amastigote activity in infected PEM, L. donovani Ld39. Format: cell-based. Conditions: for IC50: Leishmania donovani, 72 h, infected PEM, 3 days, Giemsa, SSG-resistant. An outline of the steps: as §3
In series [12] the test system is L. donovani HU3 promastigotes. Briefly: Anti-promastigote activity (MTS assay), L. donovani HU3. Format: cell-based. Conditions: Leishmania donovani, 72 hours. An outline of the steps:
as §1

Series [13] deals with mouse fibroblast (L929). Briefly: Cytotoxicity, L929 fibroblasts. The class given is cell-based. Conditions: mouse fibroblast L929. On the procedure:
as §2

For series [14], the system named is peritoneal elicited macrophages (PEM). Nature of the series: Cytotoxicity, peritoneal elicited macrophages (PEM). Format: cell-based, mouse.
Series [15] in a line: Pharmacokinetics of FM05 hydrochloride salt, oral. Format: in vivo, Balb/c mice. Conditions: male, Balb/c, mouse, plasma, 42 mg/kg, oral, saline; for half-life: po. How it is done:
Based on the result of the preliminary in vivo study, FM05 hydrochloride salt was selected for further investigation. FM05 hydrochloride salt was dissolved in saline at 4 mg/ml and administered to male balb/c at 42 mg/kg. Blood plasma samples were collected at various time points for pharmacokinetics analysis (n=2 to 3 for each time point).

Counter-ions that a name gives are not always drawn. Like-named read-outs stand apart in the source and are kept apart here. Bounds are passed on as bounds.

Usually IC50 stands for the point on the concentration scale where inhibition reaches its midpoint. Broadly, the half-life is the time in which the quantity being followed falls by half. A word on the Cmax: it is the maximum level reached in the sampled fluid or tissue. The term Tmax denotes the time from dosing to the highest level.

As to `O=c1cc(-c2ccc(OCCN3CCN(Cc4ccncc4)CC3)cc2)oc2ccccc12` [FM01, 2-(4-(2-(4-(pyridin-4-ylmethyl)piperazin-1-yl)ethoxy)phenyl)-4H-chromen-4-one], the IC50 was 0.7 ± 0.1 µM in series [1] (Leishmania donovani); over 33 µM in [2]; 6 ± 1.8 µM in series [3] (Leishmania amazonensis); under 5 µM in [4]; 1.8 ± 0.6 µM in [5] (Leishmania amazonensis, 72 h); under 5 µM in [6]. Also, the half-maximal inhibitory concentration (IC50) was 8.4 µM in series [7]; 5.6 ± 1 µM in series [8] (Leishmania major); over 9 µM in series [10]; over 10 µM in series [11]; 1.2 ± 0.3 µM in series [12]. Moreover, the “Selective index (a)/(b)” value in series [5] (IC50 RAW264.7 over IC50 L. amazonensis LV78 amastigotes) was 28.8. For the same molecule, the “Ratio of plasma concentration from oral feeding to i.v. administration” value in series [9] was found to be 45%.

As for `O=c1cc(-c2ccc(OCCN3CCN(Cc4ccncc4)CC3)cc2)oc2ccccc12` [FM01.HCl], the IC50 in series [1] is 1.3 ± 0.3 µM; in [13], 33.7 µM; in [3], 12.6 ± 0.9 µM; in series [5] it was over 9 µM; in [14], 55.9 µM; in series [8], 6.7 ± 1.9 µM.

Take `O=c1cc(-c2ccc(OCCC3CCN(Cc4ccncc4)CC3)cc2)oc2ccccc12` [FM05, 2-(4-(2-(1-(pyridin-4-ylmethyl)piperidin-4-yl)ethoxy)phenyl)-4H-chromen-4-one]: the IC50 was 0.3 ± 0.1 µM in [1] (Leishmania donovani); over 100 µM in series [2]; 5.1 ± 1 µM in series [3] (Leishmania amazonensis); under 5 µM in [4]; 4.1 ± 0.9 µM in [5] (Leishmania amazonensis, 72 h); under 5 µM in [6]. Moreover, the IC50 in series [8] (Leishmania major) is 3.9 ± 0.8 µM; in series [10], 3.5 µM; in [11] it was over 10 µM; in [12], 0.4 ± 0.1 µM. The “Ratio of plasma concentration from oral feeding to i.v. administration” value in series [9] was 64%. In addition, in series [10] (IC50 RAW264.7 over IC50 L. donovani HU3 amastigotes), the “Selective index (a)/(b)” value is listed as 10.5. Besides, the “Selective index (a)/(c)” value in series [11] (IC50 RAW264.7 over IC50 L. donovani Ld39 amastigotes) is listed as under 3.7. Further, the half-life was determined as 0.417 h in series [15] (read-out: Half-life (Distribution and absorption)); 3.37 h in [15] (read-out: Half-life (Elimination)). Besides, the Cmax in series [15] came to 313 ng/mL. In series [15], the time of peak concentration (Tmax) was 2 h.

These data come from patent US10111854B2, “Synthesis and use of amine-containing flavonoids as potent anti-leishmanial agents” (The Hong Kong Polytechnic University, priority 2014, dated 2018).
